In patent publication US20230212121A1 (DAEGU-GYEONGBUK MEDICAL INNOVATION FOUNDATION, priority 2020, published 2023):
Read-outs that look alike come from different tables or passages of the source.

Legend:
Type in all cases: cell-based
[1] = target: T1, serotonin transporter (SERT) (Homo sapiens, UniProt P31645); assay: Serotonin reuptake inhibition, [3H]-5-HT, HEK-293 cells transfected with 5-HT transporter cDNA; settings: for IC50: concentration at which Ratio % is 50%, 6 concentrations 1 nM to 1 μM, read-out: Triple reuptake inhibition (IC50, μM) SERT
T1 construct: expressed in transfected cells; host or cells: HEK-293
Experimental: (§1) In order to evaluate the reuptake inhibitory effect of the compounds of the Examples according to the present invention on serotonin, norepinephrine and dopamine, the experiments below were performed, and the results are shown in Table 17.
(§2) To evaluate the reuptake inhibition effect on dopamine, the dopamine transporter cDNA was transfected using the HEK-293 cell line, and then sub-seeded in a 24 well plate the next day. After removing the medium, each compound of the Examples or Comparative Examples diluted to 1 μM in uptake buffer was added to a concentration of 200 μl/well and cultured at 37° C. for 15 minutes. 100 μl of uptake buffer containing 20-30 nM [3H]-DA was added and cultured at 37° C. for 5 minutes. The reaction solution was quickly removed and washed three times with 1 ml ice-cold uptake buffer. After dissolving the resultant in 1% SDS (0.5 ml), the degree of binding of radioisotope-labeled dopamine to the transporter was measured.
(§3) For norepinephrine (NE) and serotonin (5-HT), the degree of binding of radioisotope-labeled norepinephrine or serotonin to the transporter was measured in the same manner as above, except that cells transfected with NE or 5-HT transporter cDNA were used and [3H]—NE or [3H]-5-HT was used as a substrate.
(§4) In addition, when evaluating the reuptake inhibitory effect on dopamine, norepinephrine, and serotonin, the same method was performed without treating each compound of the Examples or Comparative Examples as a control, the degree of binding of radioisotope-labeled dopamine, norepinephrine, and serotonin to the transporter was measured, and by using this as a reference (100%), the triple reuptake inhibitory effect was evaluated as a relative ratio (Ratio %). That is, in the control group, the binding of dopamine, norepinephrine, and serotonin to transporters is not inhibited, but when each compound of the Examples is treated and thus the binding is inhibited, the Ratio % value decreases.
(§5) Meanwhile, the Ratio % values were compared, and in the case of the compounds of Examples 6, 10, 13, 14, 17, 20, 21, 22, 30, 31, 32, 34, 36, 38, 39, 40, 54, 55, 56, 57, 58 and 73 with excellent reuptake inhibitory effects on dopamine, norepinephrine and serotonin, the concentration at which the Ratio % is 50% was calculated using a total of 6 concentrations (1 nM, 5 nM, 10 nM, 50 nM, 100 nM, and 1 μM) and expressed as IC50.

[2] = target: T2, norepinephrine transporter (NET) (Homo sapiens, UniProt P23975); assay: Norepinephrine reuptake inhibition, [3H]-NE, HEK-293 cells transfected with NE transporter cDNA; settings: for Triple reuptake inhibition (Ratio %) NET: compound 1 μM, [3H]-NE, relative to control without compound = 100%, lower value = more inhibition; for IC50: concentration at which Ratio % is 50%, 6 concentrations 1 nM to 1 μM, read-out: Triple reuptake inhibition (IC50, μM) NET
T2 construct: expressed in transfected cells; host or cells: HEK-293
Experimental: as §1, §2, §3, §4, §5

[3] = target: T3, dopamine transporter (DAT) (Homo sapiens, UniProt Q01959); assay: Dopamine reuptake inhibition, [3H]-DA, HEK-293 cells transfected with dopamine transporter cDNA; settings: for Triple reuptake inhibition (Ratio %) DAT: compound 1 μM, 20-30 nM [3H]-DA, relative to control without compound = 100%, lower value = more inhibition; for IC50: concentration at which Ratio % is 50%, 6 concentrations 1 nM to 1 μM, read-out: Triple reuptake inhibition (IC50, μM) DAT
T3 construct: expressed in transfected cells; host or cells: HEK-293
Experimental: as §1, §2, §4, §5

[4] = compound 1 μM, [3H]-5-HT, relative to control without compound = 100%, lower value = more inhibition

T1 sequence (P31645 whole entry, species assumed): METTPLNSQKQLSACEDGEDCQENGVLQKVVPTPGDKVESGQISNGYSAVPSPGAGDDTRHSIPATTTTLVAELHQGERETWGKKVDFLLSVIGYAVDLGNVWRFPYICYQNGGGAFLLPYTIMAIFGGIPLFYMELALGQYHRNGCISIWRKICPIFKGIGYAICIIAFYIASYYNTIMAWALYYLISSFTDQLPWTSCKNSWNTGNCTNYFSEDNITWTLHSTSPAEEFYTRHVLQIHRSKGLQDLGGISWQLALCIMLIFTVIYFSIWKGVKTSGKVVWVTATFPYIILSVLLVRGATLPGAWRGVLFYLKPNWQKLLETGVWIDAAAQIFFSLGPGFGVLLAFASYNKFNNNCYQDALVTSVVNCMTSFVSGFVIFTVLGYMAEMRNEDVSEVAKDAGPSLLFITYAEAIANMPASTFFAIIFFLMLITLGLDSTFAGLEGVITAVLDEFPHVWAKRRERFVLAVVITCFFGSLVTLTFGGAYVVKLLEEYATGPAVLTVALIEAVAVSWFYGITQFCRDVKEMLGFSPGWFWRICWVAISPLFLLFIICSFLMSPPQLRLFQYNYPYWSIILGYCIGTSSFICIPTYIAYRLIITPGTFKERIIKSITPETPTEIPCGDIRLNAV
T3 sequence (Q01959 whole entry, species assumed): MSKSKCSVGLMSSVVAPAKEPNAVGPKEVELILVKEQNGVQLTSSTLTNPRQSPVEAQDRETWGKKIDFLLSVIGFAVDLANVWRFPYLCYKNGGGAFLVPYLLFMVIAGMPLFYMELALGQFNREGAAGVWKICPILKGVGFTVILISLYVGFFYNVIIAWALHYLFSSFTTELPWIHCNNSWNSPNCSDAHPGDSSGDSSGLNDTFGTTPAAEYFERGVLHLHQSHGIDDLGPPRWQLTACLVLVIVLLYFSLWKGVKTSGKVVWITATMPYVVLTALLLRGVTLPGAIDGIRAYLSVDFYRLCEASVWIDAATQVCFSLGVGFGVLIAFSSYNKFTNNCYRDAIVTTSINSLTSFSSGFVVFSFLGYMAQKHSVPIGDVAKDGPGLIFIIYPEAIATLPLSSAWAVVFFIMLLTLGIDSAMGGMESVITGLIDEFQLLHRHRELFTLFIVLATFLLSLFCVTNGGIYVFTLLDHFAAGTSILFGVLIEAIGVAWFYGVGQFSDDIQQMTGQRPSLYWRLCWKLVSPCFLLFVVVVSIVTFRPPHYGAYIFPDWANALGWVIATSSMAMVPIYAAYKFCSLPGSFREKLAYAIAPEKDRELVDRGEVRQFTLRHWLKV
T2 sequence (P23975 whole entry, species assumed): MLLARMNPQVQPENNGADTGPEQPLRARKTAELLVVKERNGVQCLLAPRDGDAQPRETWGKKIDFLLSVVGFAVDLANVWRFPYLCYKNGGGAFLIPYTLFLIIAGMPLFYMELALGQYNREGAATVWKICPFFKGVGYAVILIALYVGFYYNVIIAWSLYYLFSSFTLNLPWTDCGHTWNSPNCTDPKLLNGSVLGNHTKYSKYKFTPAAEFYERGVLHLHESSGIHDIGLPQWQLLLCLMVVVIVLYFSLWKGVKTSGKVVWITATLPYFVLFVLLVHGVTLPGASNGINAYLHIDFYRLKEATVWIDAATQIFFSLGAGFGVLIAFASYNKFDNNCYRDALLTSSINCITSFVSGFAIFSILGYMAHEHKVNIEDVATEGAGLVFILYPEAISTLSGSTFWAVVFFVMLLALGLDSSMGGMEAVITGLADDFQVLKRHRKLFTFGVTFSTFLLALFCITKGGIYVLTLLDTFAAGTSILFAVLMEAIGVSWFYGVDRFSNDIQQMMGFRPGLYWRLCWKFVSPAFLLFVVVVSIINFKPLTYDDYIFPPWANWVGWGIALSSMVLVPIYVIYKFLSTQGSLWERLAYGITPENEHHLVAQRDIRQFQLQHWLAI

| Molecule | Triple reuptake inhibition (Ratio %) SERT [1, 4] | Triple reuptake inhibition (Ratio %) NET [2] | Triple reuptake inhibition (Ratio %) DAT [3] | Triple reuptake inhibition (Ratio %) SERT [1] | IC50 [1] | IC50 [2] | IC50 [3] |
| --- | --- | --- | --- | --- | --- | --- | --- |
| O=S(=O)(NCCN1CCC(c2ccccc2)CC1)c1ccc2ccccc2n1 [Example 45, N-(2-(4-phenylpiperidin-1-yl)ethyl)quinolin-2-sulfonamide] | 56.73% | 45.04% | 89.88% | – | – | – | – |
| O=S(=O)(NCCN1CCC(Cc2ccccc2)CC1)c1ccc(O)cc1 [Example 1, N-(2-(4-benzylpiperidin-1-yl)ethyl)-4-hydroxybenzenesulfonamide] | – | 77.88% | 65.88% | 84.98% | – | – | – |
| O=S(=O)(NCCCCN1CCC(CCCc2ccccc2)CC1)c1ccc(-c2ccccc2)cc1 [Example 79, N-(4-(4-(3-phenylpropyl)piperidin-1-yl)butyl)-[1,1′-biphenyl]-4-sulfonamide] | 21.60% | 30.25% | 20.60% | – | – | – | – |
| O=S(=O)(NCCN1CCC(Cc2ccccc2)CC1)c1ccc2ccccc2n1 [Example 41, N-(2-(4-benzylpiperidin-1-yl)ethyl)quinolin-2-sulfonamide] | 64.15% | 34.97% | 80.21% | – | – | – | – |
| O=S(=O)(NCCCN1CCC(Cc2ccccc2)CC1)c1ccc(-c2ccc(F)cc2)cc1 [Example 58, N-(3-(4-benzylpiperidin-1-yl)propyl)-4′-fluoro-[1,1′-biphenyl]-4-sulfonamide] | 50.76% | 44.79% | 55.51% | – | 1.84 µM | 0.429 µM | 0.647 µM |
| O=S(=O)(NCCCN1CCN(CCCc2ccccc2)CC1)c1ccc(-c2ccccc2)cc1 [Example 76, N-(3-(4-(3-phenylpropyl)piperazin-1-yl)propyl)-[1,1′-biphenyl]-4-sulfonamide] | 44.91% | 44.79% | 19.97% | – | – | – | – |
| O=S(=O)(NCCN1CCN(Cc2ccccc2)CC1)c1ccc2ccccc2c1 [Example 46, N-(2-(4-benzylpiperazin-1-yl)ethyl)naphthalen-2-sulfonamide] | 49.64% | 87.27% | 83.08% | – | – | – | – |
| O=S(=O)(NCCCN1CCC(Cc2ccccc2)CC1)c1ccc(-c2ccc(Cl)cc2)cc1 [Example 59, N-(3-(4-benzylpiperidin-1-yl)propyl)-4′-chloro-[1,1′-biphenyl]-4-sulfonamide] | 29.78% | 44.79% | 15.16% | – | – | – | – |
| CCCCOc1ccc(S(=O)(=O)NCCCN2CCC(c3cccc(Cl)c3Cl)CC2)cc1 [Example 33, 4-butoxy-N-(3-(4-(2,3-dichlorophenyl)piperidin-1-yl)propyl)benzenesulfonamide] | 59.74% | 68.93% | 66.67% | – | – | – | – |
| CCCCOc1ccc(S(=O)(=O)NCCCN2CCC(Cc3ccc(OC)cc3)CC2)cc1 [Example 30, 4-butoxy-N-(3-(4-(4-methoxybenzyl)piperidin-1-yl)propyl)benzenesulfonamide] | 23.18% | 37.58% | – | – | 0.538 µM | 1.7 µM | 11.6 µM |
| O=S(=O)(NCCCN1CCC(Cc2ccccc2)CC1)c1ccc2ccccc2c1 [Example 54, N-(3-(4-benzylpiperidin-1-yl)propyl)naphthalen-2-sulfonamide] | 46.95% | 36.68% | 45.75% | – | 1.94 µM | 1.25 µM | 0.948 µM |
| N-(3-(4-benzylpiperidin-1-yl)propyl)-4-butoxybenzenesulfineamide [Example 19] | 67.86% | 64.78% | 57.52% | – | – | – | – |
| O=S(=O)(NCCCN1CCC(c2ccccc2)CC1)c1ccc2ccccc2n1 [Example 65, N-(3-(4-phenylpiperidin-1-yl)propyl)quinolin sulfonamide] | 56.73% | 45.04% | 89.88% | – | – | – | – |
| CCCCOc1ccc(S(=O)(=O)NCCCN2CCN(CC3CCOCC3)CC2)cc1 [Example 25, 4-butoxy-N-(3-(4-((tetrahydro-2H-pyran-4-yl)methyl)piperazin-1-yl)propyl)benzenesulfonamide] | 84.44% | 102.91% | 111.51% | – | – | – | – |
| CCCCOc1ccc(S(=O)(=O)NCCCN2CCC(c3c[nH]c4ccccc34)CC2)cc1 [Example 11, N-(3-(4-(1H-indol-3-yl)piperidin-1-yl)propyl)-4-butoxybenzenesulfonamide] | 18.04% | 73.79% | 73.16% | – | – | – | – |
| O=S(=O)(NCCN1CCC(Cc2ccccc2)CC1)c1cc2ccccc2[nH]1 [Example 36, N-(2-(4-benzylpiperidin-1-yl)ethyl)-1H-indol-2-sulfonamide] | 72.85% | 79.12% | 30.48% | – | – | – | 0.843 µM |
| O=S(=O)(NCCN1CCC(c2ccccc2)CC1)c1cccc2ccccc12 [Example 43, N-(2-(4-phenylpiperidin-1-yl)ethyl)naphthalen-1-sulfonamide] | 64.15% | 34.97% | 80.21% | – | – | – | – |
| O=C(CCN1CCCCC1)Nc1ccc(S(=O)(=O)NCCCN2CCC(Cc3ccccc3)CC2)cc1 [Example 17, N-(4-(N-(3-(4-benzylpiperidin-1-yl)propyl)sulfamoyl)phenyl)-3-(piperidin-1-yl)propaneamide] | 9.28% | 58.66% | 40.96% | – | 0.057 µM | 1.56 µM | 5.17 µM |
| Cc1ccc(-c2ccc(S(=O)(=O)NCCCN3CCC(Cc4ccccc4)CC3)cc2)cc1 [Example 60, N-(3-(4-benzylpiperidin-1-yl)propyl)-4′-methyl-[1,1′-biphenyl]-4-sulfonamide] | 17.76% | 44.79% | 9.15% | – | – | – | – |
| O=S(=O)(NCCCN1CCC(CCCc2ccccc2)CC1)c1ccc(-c2ccc(F)cc2)cc1 [Example 74, 4′-fluoro-N-(3-(4-(3-phenylpropyl)piperidin-1-yl)propyl)-[1,1′-biphenyl]-4-sulfonamide] | 61.48% | 44.79% | 76.23% | – | – | – | – |
| O=S(=O)(NCCN1CCC(Cc2ccccc2)CC1)c1ccc(F)cc1 [Example 2, N-(2-(4-benzylpiperidin-1-yl)ethyl)-4-fluorobenzenesulfonamide] | 100.21% | 61.32% | 73.55% | – | – | – | – |
